Measured values: publication PMC4467913 (Phytochemistry letters, 2015)

How the values were obtained:
HT-29 cancer cell line = test: Cytotoxicity assay, HT-29; type: cell-based, human; settings: highest concentration tested 33 µM
trypsin = test: Protease inhibition assay, trypsin; type: biochemical; settings: highest concentration tested 13 µM
Mycobacterium smegmatis = test: Growth inhibition assay, M. smegmatis; type: cell-based; settings: highest concentration tested 50 µg/mL
Escherichia coli = test: Growth inhibition assay, E. coli; type: cell-based; settings: highest concentration tested 50 µg/mL
chymotrypsin = test: Protease inhibition assay, chymotrypsin; type: biochemical; settings: highest concentration tested 13 µM
[1] = tested on: Mycobacterium tuberculosis; settings: highest concentration tested 50 µg/mL
elastase = test: Protease inhibition assay, elastase; type: biochemical; settings: highest concentration tested 13 µM
Staphylococcus aureus = test: Growth inhibition assay, S. aureus; type: cell-based; settings: highest concentration tested 50 µg/mL
[2] = tested on: MDA-MB-435 cancer cell line; test: Cytotoxicity assay, MDA-MB-435; type: cell-based, human; settings: highest concentration tested 33 µM
Candida albicans = test: Growth inhibition assay, C. albicans; type: cell-based; settings: highest concentration tested 50 µg/mL

cyclo[L-Val2-L-Ser-L-Ile-L-Asn-L-Val1-L-Phe-L-Pro-] [Microseiramide (1)]
no activity was observed: cytotoxicity (HT-29 cancer cell line) | protease inhibition (trypsin) | growth inhibition (Mycobacterium smegmatis) | growth inhibition (Escherichia coli) | protease inhibition (chymotrypsin) | growth inhibition [1] | protease inhibition (elastase) | growth inhibition (Staphylococcus aureus) | cytotoxicity [2] | growth inhibition (Candida albicans)
